Assay results taken from patent US20150057354A1, “METHOD OF MAINTAINING OR IMPROVING TACTICAL PERFORMANCE AND COGNITIVE FUNCTION THROUGH DIETARY SUPPLEMENTATION” (Natural Alternatives International, Inc., priority 2013, published 2015).
Where two headings read alike, the source gives them in different places.

Legend:
[1] = β-alanine taken as a free amino acid; some individuals; cited from earlier work
[2] = 30 days, 6 g per day, sustained-release tablets
Excerpt: (§1) Eighteen male soldiers from an elite combat unit volunteered to participate in this double-blind study. […] Screening for performance enhancing drug use and additional supplementation was accomplished via a health questionnaire completed during participant recruitment. Participants were from the same unit, but were from three different squads. Volunteers from each squad were randomly assigned to one of two groups. The randomization procedure involved that each volunteer from the same squad to be alternatively assigned to each group. […] The first group (BA; age 19.6±0.5 years; height: 1.76±0.05 m; body mass: 72.1±4.5 kg) consumed 6.0 g of β-alanine per day, while the second group (PL; age 20.2±1.0 years; height: 1.79±0.08; body mass: 76.4±6.1 kg) consumed 6 g of placebo (rice flour). During the 30-day study period all participants from all squads participated in the same advanced military training tasks that included combat skill development, physical work under pressure, navigational training, self-defense/hand-to-hand combat and conditioning.
Participants in the supplement group were provided with 2 tablets of sustained-release β-alanine at a dose of (2 g per serving) three times per day (total β-alanine intake was 6 g per day) and subjects in the placebo group were provided with an equivalent amount of rice powder. […]

[3] = Pre to Post; p=0.844, ES=0.003
Excerpt: (§2) Each session required all participants to perform a 4 km run dressed in shorts, T-shirt and running shoes. Immediately following the 4 km run, participants performed five countermovement jumps.
(§3) Participants in the supplement group were provided with 2 tablets of sustained-release β-alanine at a dose of 2 g per serving three times per day (total β-alanine intake was 6 g per day) and subjects in the placebo group were provided with an equivalent amount of rice powder. […] Supplementation occurred over a 28 day period.

[4] = for Average Sprint Time / Fatigue rate: Repeat 30-m Sprints
Description: (§4) Data collection occurred before (PRE) and following (POST) 30 days of supplementation. During each session participants performed military relevant tasks that included a 2.5 km run, a 1-min sprint, and a 50-m casualty carry. In addition, participants performed repeated 30-m sprints in combat gear (combat vest with ammunition, helmet, and assault rifle). Between each sprint soldiers were tested on marksmanship. Immediately following the final sprint and target shooting, participants performed a 2-min serial subtraction test on the firing range to assess cognitive function under stressful conditions (continuous shooting). These assessments were based upon previously published investigations examining military performance responses during stressful conditions (Nindl, Leone et al. 2002, Harman, Gutekunst et al. 2008).
as §3, with “of (2” for “of 2”, “per serving)” for “per serving”, “powder. Participants were instructed to consume the supplement following their meals with water.” for “powder.”, “occurred every day” for “occurred”, “a 30-day” for “a 28 day”

[5] = four weeks of ingestion, dosages similar to the present one (Hill et al., 2007); cited from earlier work
[6] = 2.5 km run
Excerpt: as §1, §4
(§5) These tests simulated a rapid approach to the battlefield. […] During the run and sprint all participants were dressed in shorts, T-shirt and running shoes. Both the run and sprint were performed on an asphalt road. All participants were provided with an individual global positioning system (GPS) that they wore in a vest underneath their shirt. The GPS unit (MinimaxX, V4.3, Catapult Innovations, Victoria, Australia) was positioned in a posterior pocket on the vest situated between the participant's right and left scapula in the upper-thoracic spine region. Information on velocity patterns was recorded during the 2.5 run, as well as total distance run during the 1-min sprint. During the 2.5 km run the velocity of the run was divided into three operationally distinct thresholds and defined as low speed (2.50 m˜s^−1-3.60 m˜s^−1), moderate speed (3.61 m·s^−1-4.43 m·s^−1) or high speed (>4.44 m·sec^−1). In addition, the average velocity and average heart rate during the 2.5 km run were also downloaded from the GPS receiver/transmitters.
as §3, with “of (2” for “of 2”, “per serving)” for “per serving”, “powder. Participants were instructed to consume the supplement following their meals with water.” for “powder.”, “occurred every day” for “occurred”, “a 30-day” for “a 28 day”

[7] = Study 1: vertical jump power (five countermovement jumps) after 4-km run; conditions: at Post
[8] = 30 days, 6 g per day; p=0.048
Description: Carnosine content of all participants was assessed by proton magnetic resonance spectroscopy (MRS) in the gastrocnemius muscle. All studies were performed on a 3-T system (Ingenia, Philips Medical Systems, Best, The Netherlands). Single-voxel, STEAM acquisitions of the gastrocnemius medialis muscle of the lower leg were carried out using a transmit-receive (16-channel) coil. In the leg the scan parameters were TR/TM/TE=2000/12/13 ms. Second-order shimming was used giving a full-width-half-maximum line width of approximately 25 Hz in the calf muscle. Water suppression was achieved by applying two bandwidth selective rf pulses. […] The spectra were analyzed using the Philips SpectroView software.
A 1-litre solution of 20 mM L-carnosine (Sigma-Aldrich) in 0.1M potassium phosphate buffer (pH=7.2) was used as an external reference phantom for absolute quantification. […]
The T1, T2 values for the phantom and muscle were taken from Baguet and colleagues (2010). The correction for the coil loading was calculated according to the method previously described (Soher, van Zijl et al. 1996).
Data was analyzed using a 2×2 [treatment (BA, PL) X time (PRE, POST)] repeated measures analysis of variance. […] POST-PRE (A) performance changes were analyzed using an unpaired t test. […] As such, comparisons A carnosine content was analyzed using the non-parametric independent samples median test. […]

[9] = for High Running Velocity (>4.4 m · sec^−1): distance run at high velocity; for Low-Moderate Running Velocity (<4.4 m · sec^−1): distance run at low to moderate velocity
Excerpt: Twenty male soldiers from a special operations unit of the Israel Defense Force (IDF) volunteered to participate in this study to examine the effect of 28 days of beta-alanine ingestion on physical, tactical, psychomotor and cognitive performance in military personnel. Following an explanation of all procedures, risks and benefits, each participant provided their informed consent to participate in the study. The Helsinki committee of the IDF Medical Corps approved the research protocol. […] Screening for performance enhancing drug use and additional supplementation was accomplished via a health questionnaire completed during participant recruitment. All participants were from the same unit, but were from three different squads. Volunteers from each squad were randomly assigned to one of two groups. The first group; (BA; 20.1±0.7 years; height: 1.79±0.07 m; weight: 78.3±9.7 kg) consumed 6.0 g of β-alanine per day, while the second group (PL; 20.2±1.1 years; height: 1.80±0.05; weight: 79.6±7.8 kg) consumed 6 g of placebo (rice flour). There were an equal number of participants from each squad that were randomly assigned to either BA or PL.
as §2
All participants were provided with an individual global positioning system (GPS) that they wore in a vest underneath their shirt. The GPS unit (MinimaxX, V4.3, Catapult Innovations, Victoria, Australia) was positioned in a posterior pocket on the vest situated between the participant's right and left scapula in the upper-thoracic spine region. Information on velocity patterns was recorded during the 4 km run. Peak velocity, mean velocity, distance covered running at slow-moderate speed (<4.44 m·sec-1), distance covered running at high speed (4.44+m·sec-1), and the percent of total distance run at slow-moderate and high speeds were downloaded from the GPS receiver/transmitters. Data was collected at 10 Hz and all analysis was performed with the system software provided by the manufacturer.
as §3
Data were analyzed using a 2×2 [treatment (BA, PL) X time (pretest, posttest)] mixed factorial ANOVA.

[10] = Excerpt: as §2
Targets were set at a 40-m distance from the firing line and were all headshots. Each shot that hit the target was considered accurate. Twenty targets were set up on the range. All participants were notified prior to the start of data collection which target they were required to shoot at. Immediately following the 120-m sprint, participants continued onto the shooting range and shot 5 times while standing and 5 times from a kneeling position with their assault rifle. Participants were requested to shoot rapidly and accurately. While shooting, each participant was required to handle a misfire in their weapon. The misfire was prearranged by the investigative team, which involved placing an empty bullet into weapon's magazine (weapon's ammunition storage and feeding device). This required the participant to recognize and correct the misfire and continue to deliver fire at the designated target. The designed misfire was set to increase the stress of the shooting, with the participants already fatigued from the 4 km run, jumps and sprint with full gear. The number of accurate shots and the time required to perform these shots was recorded.
as §3

[11] = 1-min Sprint
Description: as §4, §5
During the 1-min sprint peak velocity, average velocity, total distance, total distance within 90% of peak velocity, and percent decline was downloaded from the GPS receiver/transmitters. All data were collected at 10 Hz and all analyses were performed with the system software provided by the manufacturer.
as §3, with “of (2” for “of 2”, “per serving)” for “per serving”, “powder. Participants were instructed to consume the supplement following their meals with water.” for “powder.”, “occurred every day” for “occurred”, “a 30-day” for “a 28 day”

[12] = 4-km run, POST (28 days, 6 g per day)

NCCC(=O)O [BA, β-alanine]
duration of flushing/tingling of the skin [1]: less than 60 minutes | adverse events [2]: No adverse events were reported | serial subtraction test, BA vs PL [3]: no significant interactions | Δ time for the 50-m casualty carry vs PL ([4]; 30 days, 6 g per day, p=0.044): significantly (p=0.044) improved | serial subtraction test under stress vs placebo ([4]; 30 days, p=0.022): significantly improve performance | Average Sprint Time ([4]; POST): 8.00 ± 0.29 s | Fatigue rate ([4]; POST): 91.8 ± 3.0% | Average Sprint Time ([4]; PRE): 7.42 ± 0.24 s | Fatigue rate ([4]; PRE): 91.6 ± 4.8% | elevation of muscle carnosine concentrations [5]: 60% | Average Heart Rate ([6]; POST): 165.7 ± 6.1 beats · min^−1 | Average Velocity ([6]; POST): 4.09 ± 0.25 m · s^−1 | Distance Run at High Intensity ([6]; POST): 23.9 ± 20.1% | Distance Run at Low Intensity ([6]; POST): 10.7 ± 14.0% | Distance Run at Moderate Intensity ([6]; POST): 65.1 ± 14.8% | Time ([6]; POST (30 days, 6 g per day)): 629 ± 23.8 s | Average Heart Rate ([6]; PRE): 156.8 ± 15.5 beats · min^−1 | Average Velocity ([6]; PRE): 3.97 ± 0.17 m · s^−1 | Distance Run at High Intensity ([6]; PRE): 18.4 ± 12.4% | Distance Run at Low Intensity ([6]; PRE): 12.3 ± 12.0% | Distance Run at Moderate Intensity ([6]; PRE): 69.8 ± 12.1% | Time ([6]; PRE): 624 ± 22.6 s | vertical jump relative mean power [7]: 14.1±1.7 w·kg-1 | vertical jump relative peak power vs PL ([7]; p=0.034, ES=0.27): significantly greater | relative mean power, percent greater than PL ([7]; p=0.139, ES 0.14): 10.2% | Δ carnosine content within the gastrocnemius muscle vs PL [8]: Significant elevations | % Distance run at High Running Velocity ([9]; 4-km run, POST): 25.4 ± 18.0% | % Distance run at Low to Moderate Running Velocity ([9]; 4-km run, POST): 74.3 ± 18.3% | Average Velocity [9, 12]: 4.13 ± 0.27 m · sec^−1 | Peak Velocity [9, 12]: 5.46 ± 0.26 m · sec^−1 | % Distance run at High Running Velocity ([9]; 4-km run, PRE): 29.3 ± 16.1% | % Distance run at Low to Moderate Running Velocity ([9]; 4-km run, PRE): 70.8 ± 16.2% | Average Velocity ([9]; 4-km run, PRE): 4.25 ± 0.22 m · sec^−1 | Peak Velocity ([9]; 4-km run, PRE (before supplementation), mean ± SD): 5.84 ± 0.63 m · sec^−1 | difference between BA and PL in the distance run at a high velocity ([9]; 4-km run, Post, not statistically significant): 34.9% | High Running Velocity (>4.4 m · sec^−1) ([9]; 4-km run, POST): 1009 ± 675 | High Running Velocity (>4.4 m · sec^−1) ([9]; 4-km run, PRE): 1166 ± 610 | Low-Moderate Running Velocity (<4.4 m · sec^−1) ([9]; 4-km run, POST): 2957 ± 672 | Low-Moderate Running Velocity (<4.4 m · sec^−1) ([9]; 4-km run, PRE): 2811 ± 605 | 4K Run Time ([9]; POST): 962.6 ± 65.0 s | 4K Run Time ([9]; PRE): 942.4 ± 39.3 s | difference between the groups in time to perform 10 shots ([10]; BA faster than PL, not statistically different): 24.8% | time to perform 10 shots ([10]; Post, PL 37.7±13.9 sec, p=0.161): 30.2 ± 5.8 s | number of shots on target ([10]; at Post, of 10 shots, 40-m targets, p=0.012 vs PL): 8.2±1.0 | Average Velocity ([11]; POST): 5.09 ± 0.36 m · s^−1 | Distance Run at 90% Peak Velocity ([11]; POST): 58.5 ± 7.7 | Fatigue rate ([11]; POST): 30.9 ± 6.7% | Peak Velocity ([11]; POST): 6.57 ± 0.18 m · s^−1 | total distance run ([11]; POST): 302.4±21.2 m | Average Velocity ([11]; PRE): 5.21 ± 0.28 m · s^−1 | Distance Run at 90% Peak Velocity ([11]; PRE): 69.5 ± 4.1 | Fatigue rate ([11]; PRE): 32.5 ± 5.5% | Peak Velocity ([11]; PRE): 6.68 ± 0.36 m · s^−1 | total distance run ([11]; PRE): 310.0±16.7 m
